# Tested on: Aβ40
# Experiment: Assessment of Aβ levels in rat brain and plasma following BACE1 inhibition (Aβ40 ELISA)
# Type: in vivo
# Details: 3 hours post dose, vs vehicle
# Procedure: Young adult Male Sprague Dawley rats of approximately 250 g weight were purchased from Charles River and received 0-30 mg/kg of vehicle (10% HP betaCD+1M MeSO4, pH 2.5) or test compounds (dissolved in vehicle) only by oral gavage (p.o). The compounds are dosed at a volume of 5 ml/kg. Cohorts of 5-10 animals were established for each treatment condition.
# At T=180 minutes after initial dosing the animals were stunned and decapitated with a guillotine. Trunk-blood was sampled in EDTA coated tubes after decapitation of the animal. The blood was centrifuged at 2200 G at 4° C. for 15 minutes and the plasma was collected and frozen at −80° C. The blood was aliquoted for Aβ ELISA and DMPK analysis Immediately following sacrifice, the brain was extracted and split into 2 halves. The right hemibrains were snap frozen on dry ice and stored at −80° C. The left half was dissected; with the front forebrain taken for Aβ ELISA and the remainder used for DMPK analysis. These samples were also snap frozen on dry ice and stored at −80° C. until use for analysis.
# The cortex samples were thawed slightly on wet ice before they were homogenized with a small volume dispersing instrument (T10 basic ULTRA-TURRAX®) which was set at speed 5 for approximately 5-7 sec. The tissue was processed in a 10 times volume of the weight, for example 100 mg of tissue was homogenized in 1000 μL of Homogenization buffer. Homogenization buffer: 50 ml Milli Q water+50 nM NaCl+0.2% Diethylamin (DEA)+1 tablet of Complete Protease inhibitor cocktail+1 nM 4-(2-aminoethyl) benzenesulfonyl fluoride hydrochloride irreversible serine protease inhibitor (AEBSF).
# After homogenization 450 μL aliquots of the samples are collected into a 1.5 ml Eppendorf tube and placed on wet ice, 0.5% NP-40 (50 ul) was added to all samples and then they were incubated on ice for 30 min. After which all samples were sonicated using an Ultrasonic homogenizer with 20 kHz homogeneous sound (SONOPLUS HD2070, Bandelin Electronic) 10 pulse set at 12-13% power to extract all the Aβ species. The samples were then centrifuged (Ole Dich 157 MPRF Micro centrifuge) at 20000 G for 20 minutes at 4° C. After centrifugation 285 μL of the supernatant was pipetted into 600 μL microtubes tubes and neutralized with 15 μL of 1M Tris-HCL buffer.
# WAKO 294-62501 Human/Rat Abeta amyloid (40) kit was used for all ELISA analyses. 30 μL plasma samples or 30 μL of the cortex supernatants generated as described above were placed in 600 μL microtubes tubes on wet ice. To this 30 μL of 8M Urea (AppliChem A1049, 9025) are added to generate a 2-fold dilution. Both plasma and cortex supernatants are incubated on ice for 30 min. Standard rows were prepared from the standard peptide stock provided in the kit and standard diluent containing 1.6M Urea (200 μL 8M Urea+800 μL of standard diluent) and 0.8M Urea (400 μL 8M Urea+3600 μL Standard diluent). A serial 2-fold dilution of Aβ40 from 100 pmol/ml to 0 pmol/L was prepared for the assay.
# After incubation with urea, all samples were further diluted by addition of 5 times standard diluent from the Kit. This was done by adding 240 μL Standard Diluent to 60 μL sample/urea mixture, which was then mixed well. 100 μL of each diluted sample was pipetted into designated wells of the ELISA plate in duplicates. The plate was then covered and incubated overnight at 4° C. The following day, the ELISA kit was brought to room temperature before use. The incubated plate was washed 5 times with the 20× washing solution diluted in Milli Q water. 100 μL HRP-conjugate was applied to each well, and the plate was covered and incubates at 4° C. for 1 hr. The wash was repeated again for 5 times. 100 μL 3,3′,5,5′-Tetramethylbenzidine (TMB) solution was applied to each well and the plate was covered and incubated in the dark at room temperature for 30 minutes. […]
Compound,"Aβ40 reduction (brain, 10 mg/kg p.o.) [%]","Aβ40 reduction (brain, 30 mg/kg p.o.) [%]","Aβ40 reduction (plasma, 10 mg/kg p.o.) [%]","Aβ40 reduction (plasma, 30 mg/kg p.o.) [%]"
"COc1cnc(C(=O)Nc2ccc(F)c([C@@]3(C(F)F)N=C(N)CCC3(F)F)c2)cn1 [Compound 3, (S)—N-(3-(6-amino-2-(difluoromethyl)-3,3-difluoro-2,3,4,5-tetrahydropyridin-2-yl)-4-fluorophenyl)-5-methoxypyrazine-2-carboxamide]",24,38,39,42
"COc1ccc(C(=O)Nc2ccc(F)c([C@@]3(C(F)F)N=C(N)CCC3(F)F)c2)nc1 [Compound 5, (S)—N-(3-(6-amino-2-(difluoromethyl)-3,3-difluoro-2,3,4,5-tetrahydropyridin-2-yl)-4-fluorophenyl)-5-methoxypicolinamide]",5,36,40,49

# Reference: US9346797B1, “2-amino 6-(difluoromethyl)-5,5-difluoro-6-phenyl-3,4,5,6-tetrahydropyridines as BACE1 inhibitors” (H. Lundbeck A/S, priority 2014, dated 2016)
